Measurements as given in article PMC4778124, “A continuous sirtuin activity assay without any coupling to enzymatic or chemical reactions” (Scientific Reports, 2016).
Non-standard residues stand in square brackets, D forms with d. Residues, ends and D or L forms follow the SMILES beside them. Groups on a side chain read outwards from the residue. Lys(thiomyristoyl) = CCCCCCCCCCCCCC(=S)NCCCC[C@H](N)C(=O)O; Tyr(3-NO2) = N[C@@H](Cc1ccc(O)c([N+](=O)[O-])c1)C(=O)O; Aun = NCCCCCCCCCCC(=O)O; 2Abz = Nc1ccccc1C(=O)O

Tests used:
Assay type in all cases: biochemical
[1] = biological target: T1, Sirt5 (Homo sapiens, UniProt Q9NXA8); assay: Continuous fluorescence assay, substrate kinetics; details: Sirt5 500 nM; MTP fluorescence reader (footnote b)
T1 construct: made in house
T1 sequence (Q9NXA8 37-310): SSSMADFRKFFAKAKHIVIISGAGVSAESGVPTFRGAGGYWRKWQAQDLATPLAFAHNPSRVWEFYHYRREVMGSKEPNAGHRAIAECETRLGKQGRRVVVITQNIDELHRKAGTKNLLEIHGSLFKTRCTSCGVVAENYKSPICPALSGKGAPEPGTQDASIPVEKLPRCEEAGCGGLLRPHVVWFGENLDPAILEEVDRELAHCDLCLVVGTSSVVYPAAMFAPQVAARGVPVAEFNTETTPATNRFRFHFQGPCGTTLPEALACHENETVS
Protocol: (§1) The fluorescence measurements were performed on a Hitachi F-4500 fluorescence spectrophotometer (Tokyo, Japan) at λEx = 310 nm and λEm = 405 nm (slitEx = 5 nm, slitEm = 2.5 nm, PMT = 700 V for 3, 4 and 5 as well as slitEx = 10 nm, slitEm = 10 nm, PMT = 950 V for 4a). Each reaction mixture contained assay-buffer, 0.5 mM NAD^+ and various peptide concentrations (0.1–100 μM) and was preincubated for 5 minutes at 37 °C. The reaction was started by adding human sirtuin (0.1–0.5 μM) and observed for 5–10 minutes. Product formation could be monitored by increase of relative fluorescence. This signal was converted into product concentration via calibration lines. […] The reaction mixture was analyzed with HPLC, to control if the entire peptide substrate was turned to product. Additionally the mixture was diluted (0.1–25 μM) and measured with Hitachi F-4500 fluorescence spectrophotometer at the same conditions as described above.
(§2) The microtiter plate fluorescence measurements were performed on a Tecan Infinite M200 microplate reader (Maennedorf, Switzerland) at λEx = 320 nm and λEm = 408 nm (lag time 9 μs, integration time […], gain 160, 170 or 182). The reactions (total volume 100 μl) were measured in black low-binding 96-well microtiter plates (NUNC). […] The reaction mixture for the calibration lines was prepared as described for the single fluorescence measurements. […]

[2] = biological target: T2, Sirt3 (Homo sapiens, UniProt Q9NTG7); assay: Continuous fluorescence assay, substrate kinetics; details: Sirt3 100 nM; fluorescence spectrophotometer (footnote a)
T2 construct: made in house
T2 sequence (Q9NTG7 1-399): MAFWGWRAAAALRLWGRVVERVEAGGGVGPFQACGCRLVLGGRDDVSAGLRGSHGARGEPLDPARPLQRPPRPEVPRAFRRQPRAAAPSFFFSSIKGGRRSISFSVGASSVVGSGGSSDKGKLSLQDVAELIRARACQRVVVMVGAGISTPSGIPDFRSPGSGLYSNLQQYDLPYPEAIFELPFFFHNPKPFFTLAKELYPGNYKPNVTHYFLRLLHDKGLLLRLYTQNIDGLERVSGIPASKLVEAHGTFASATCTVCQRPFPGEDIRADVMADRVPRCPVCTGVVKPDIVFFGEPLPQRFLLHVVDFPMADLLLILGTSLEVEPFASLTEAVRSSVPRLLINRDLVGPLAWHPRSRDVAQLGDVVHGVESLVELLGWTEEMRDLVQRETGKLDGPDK
Protocol: as §1, §2

[3] = biological target: T3, Sirt4 (Homo sapiens, UniProt Q9Y6E7); assay: Continuous fluorescence assay, substrate kinetics; details: Sirt4 1000 nM; fluorescence spectrophotometer (footnote a)
T3 construct: made in house; host or cells: E. coli BL21 (DE3)
T3 sequence (Q9Y6E7 29-314): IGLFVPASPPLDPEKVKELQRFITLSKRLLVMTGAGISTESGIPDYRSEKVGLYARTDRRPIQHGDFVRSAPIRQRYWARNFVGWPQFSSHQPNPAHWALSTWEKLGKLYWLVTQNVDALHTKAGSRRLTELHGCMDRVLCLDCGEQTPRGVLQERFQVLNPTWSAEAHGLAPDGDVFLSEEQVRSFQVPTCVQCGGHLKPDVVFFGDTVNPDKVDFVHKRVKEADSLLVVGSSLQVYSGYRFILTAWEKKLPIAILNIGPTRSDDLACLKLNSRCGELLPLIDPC
Protocol: as §1, with “The reaction was started by adding human sirtuin (0.1–0.5 μM) and observed for 5–10 minutes.” left out, “lines. The slope of the linear regression of product formation against time yielded the reaction velocity rates in μM/s.” for “lines.”
as §2

[4] = biological target: T4, Sirt6 (Homo sapiens, UniProt Q8N6T7); assay: Isomer specific inhibition by thioxo peptides, HPLC; details: substrate 2a, 30 min, 20 °C
T4 construct: His-tag; made in house; host or cells: E. coli BL21 DE3
Protocol: After 30 min incubation at 20 °C reaction was stopped using 10% TFA solution. Inhibitor solutions were irradiated at 254 nm for 5 min. Separated isomers were applied in concentrations from 1 to 10 μM. The influence of cis content on sirtuin inhibition using fluorescence spectrometer was determined with 500 μM NAD^+, 5 μM 3, 0.1 μM Sirt2 and 0.1 μM 9. Reactions were done at 20 °C with 9 in GS and PSS (after 5 min irradiation at 254 nm). 9 in PSS was applied immediately after irradiation (transfer time ~5 s) and started directly by adding sirtuin. Reactions were measured within 1 min to avoid re-isomerization.
Supplementary Figure S36. Determination of IC50 value of 8 for Sirt6 in GS (?) and PSS (π). Data were fitted with U(%) = Umin(%) + (Umax(%) – Umin(%))/(1+10^(x-logIC50)) with U(%) percental turmover of substrate 2a; Umin(%) lowest turnover of substrate; Umax(%) maximal turnover of substrate (n=3).
Supplementary Figure S37. Inhibition of Sirt6 by 8 (?) and 9 (π).Data were fitted with U(%) = Umin(%) + (Umax(%) – Umin(%))/(1+10^(x-logIC50)) with U(%) percental turmover of substrate; Umin(%) lowest turnover of substrate 2a; Umax(%) maximal turnover of substrate (n=3).
Supplementary Figure S38. Determination of IC50 of 9 for Sirt6 with 72.4 % cis- (π) and 70.3 % (?) trans-content. Measurements were done with 10 µM peptide substrate (big figure) or 30 µM (small figure). Data were fitted with U(%) = Umin(%) + (Umax(%) – Umin(%))/(1+10^(x-logIC50)) with U(%) percental turmover of substrate 2a; Umin(%) lowest turnover of substrate; Umax(%) maximal turnover of substrate (n=3).

[5] = biological target: T2, Sirt3; assay: Ki determination with substrate 3, 96-well MTP fluorescence reader; details: Sirt3 0.1 µM; varying substrate 3, 500 µM NAD+ (saturating)
Protocol: (§3) All measurements were done in duplicates.
(§4) Supplementary Figure S13. […] Data are presented as mean ± s.d. (n=2) and lines represent the Michaelis-Menten-plot (left) and secondary plots (right). The apparent KM or Vmax^app-1 values from v/[S] characteristics were plotted against the corresponding inhibitor concentration.
(§5) Supplementary Figure S15. Kinetic characteristics for sirtuin inhibitor 8. The reactions were performed with 0.01 µM Sirt2 /0.1 µM Sirt3 /0.5 µM Sirt6 and 500 µM NAD^+ and varying concentrations of 3 (0.07-100 µM). […] Data are presented as mean ± s.d. (n=2) and lines represent the Michaelis-Menten-plot (left) and secondary plots (right). The apparent Vmax^app-1 values from v/[S] characteristics were plotted against the corresponding inhibitor concentration.

[6] = biological target: T5, Sirt2 (Homo sapiens, UniProt Q8IXJ6); assay: as above; details: Sirt2 0.01 µM; varying substrate 3, 500 µM NAD+; read-out: Ki (3)
T5 construct: made in house
T5 sequence (Q8IXJ6 1-389): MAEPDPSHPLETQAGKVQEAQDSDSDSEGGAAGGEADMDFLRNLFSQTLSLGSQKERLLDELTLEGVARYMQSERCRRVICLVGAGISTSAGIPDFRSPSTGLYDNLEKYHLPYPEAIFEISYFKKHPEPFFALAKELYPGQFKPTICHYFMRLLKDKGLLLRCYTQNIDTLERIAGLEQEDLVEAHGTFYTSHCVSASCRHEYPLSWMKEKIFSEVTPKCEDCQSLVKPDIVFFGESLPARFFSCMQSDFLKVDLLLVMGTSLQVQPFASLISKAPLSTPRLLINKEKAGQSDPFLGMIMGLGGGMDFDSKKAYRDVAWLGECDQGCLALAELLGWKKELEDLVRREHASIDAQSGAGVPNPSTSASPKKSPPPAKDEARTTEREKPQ
Protocol: The microtiter plate fluorescence measurements were performed on a Tecan Infinite M200 microplate reader (Maennedorf, Switzerland) at λEx = 320 nm and λEm = 408 nm (lag time 9 μs, integration time […], gain 160, 170 or 182). The reactions (total volume 100 μl) were measured in black low-binding 96-well microtiter plates (NUNC). Assay-buffer, 500 μM NAD^+ and 0.07–200 μM peptide substrate were pre-incubated at 37 °C for 5 min. The reaction was started by adding human sirtuin (0.01–0.5 μM). The signals were converted into product concentration via calibration lines and the resulting data were evaluated as described above (single fluorescence measurement). The determination for the kinetic constants of NAD^+ was performed in the same way, except that the peptide concentration was fixed (5, 25 or 200 μM) and the NAD^+ concentration was varied (10–1500 μM). All measurements were done in duplicates. The reaction mixture for the calibration lines was prepared as described for the single fluorescence measurements. […] The resulting plots were analyzed by a competitive inhibition and non-competitive inhibition model using the program Sigma Plot 8. The linear regression of the apparent KM-values against the corresponding inhibitor concentration yielded the inhibitor constant Ki for competitive inhibition. The Ki for non-competitive inhibition was determined by linear regression of 1/apparent Vmax against the corresponding inhibitor concentration. The negative Ki value can be determined as intersection with the X-axis from these plots.
Supplementary Figure S15. Kinetic characteristics for sirtuin inhibitor 8. The reactions were performed with 0.01 µM Sirt2 /0.1 µM Sirt3 /0.5 µM Sirt6 and 500 µM NAD^+ and varying concentrations of 3 (0.07-100 µM). […] The negative Ki value can be determined as intersection with the X-axis from the Vmax^app-1/I plot.
Supplementary Figure S16. […] The negative Ki value can be determined as intersection with the X-axis from the Vmax^app-1/I plot.
Supplementary Figure S17. […] The negative Ki value can be determined as intersection with the X-axis from the Vmax^app-1/I plot.

[7] = biological target: T4, Sirt6; assay: as above; details: Sirt6 0.5 µM; varying substrate 3, 500 µM NAD+ (saturating)
Protocol: as §3, §4
Supplementary Figure S14. […] The reactions were performed with 0.5 µM Sirt6 and either 500 µM NAD^+ and varying concentrations of 3 (2-100 µM). […] Data are presented as mean ± s.d. (n=2) and lines represent the Michaelis-Menten-plot (left) and secondary plots (right). The apparent Vmax^app-1 values from v/[S] characteristics were plotted against the corresponding inhibitor concentration.
as §5

T4 sequence (Q8N6T7 whole entry): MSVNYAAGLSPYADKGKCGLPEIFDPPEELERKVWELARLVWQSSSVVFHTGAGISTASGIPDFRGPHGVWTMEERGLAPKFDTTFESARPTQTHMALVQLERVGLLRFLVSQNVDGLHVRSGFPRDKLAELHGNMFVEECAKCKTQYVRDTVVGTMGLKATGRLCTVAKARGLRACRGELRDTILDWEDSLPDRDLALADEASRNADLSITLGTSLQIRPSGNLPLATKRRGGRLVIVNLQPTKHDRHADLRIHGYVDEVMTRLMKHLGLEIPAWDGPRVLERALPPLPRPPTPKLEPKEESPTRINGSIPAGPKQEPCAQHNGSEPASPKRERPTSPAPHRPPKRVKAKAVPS

| IC50 ([4]; inhibitor with 2.5% cis isomer (ground state)) | IC50 ([4]; inhibitor with 25% cis isomer (photo-excited state)) | Ki [5] | Ki [6] | Ki [7] | Compound | Km [1] | Km [2] | Km [3] |
| --- | --- | --- | --- | --- | --- | --- | --- | --- |
|  |  |  |  |  | CC(=O)N[C@@H](CCC(=O)O)C(=O)N[C@@H](C)C(=O)N[C@@H](CC(C)C)C(=O)N1CCC[C@H]1C(=O)N[C@@H](CCCCN)C(=O)N[C@@H](CCCCNC(=O)CCCCCCCCCCNC(=O)c1ccccc1N)C(=O)N[C@@H](Cc1ccc(O)c([N+](=O)[O-])c1)C(=O)NCC(=O)NCC(N)=O [peptide 3] (Ac-EALPKK([Aun-2Abz])[Tyr(3-NO2)]GG-NH2) | 46.1 ± 7.2 µM | 3.3 ± 0.4 µM | 49.5 ± 7.5 µM |
| 1060 ± 120 nM | 1870 ± 180 nM | 100 ± 20 nM | 80 ± 20 nM | 400 ± 100 nM | CCCCCCCCCCCCCC(=S)NCCCC[C@H](NC(=O)[C@H](CCCCN)NC(=O)[C@@H]1CCCN1C(=O)[C@H](CC(C)C)NC(=O)[C@H](C)NC(=O)[C@H](CCC(=O)O)NC(C)=O)C(=O)N[C@H](C(=O)NCC(=O)NCC(N)=O)[C@@H](C)O [peptide 8] (Ac-EALPK[Lys(thiomyristoyl)]TGG-NH2) |  |  |  |
